Test results from ChEMBL document CHEMBL1201861, “Genomics of Drug Sensitity in Cancer screening data, Wellcome Trust Sanger Institute”.

Legend:
Assay in all cases: cells
[1] = system: COLO-792; format: functional, cell-based, Homo sapiens; conditions: Homo sapiens, COLO-792
Description: SANGER: Inhibition of human COLO-792 cell growth in a cell viability assay.

[2] = system: CTB-1; format: functional, cell-based; conditions: Homo sapiens
Description: SANGER: Inhibition of human CTB-1 cell growth in a cell viability assay.

[3] = system: D-247MG; format: functional, cell-based, Homo sapiens; conditions: Homo sapiens, D-247MG
Description: SANGER: Inhibition of human D-247MG cell growth in a cell viability assay.

[4] = system: DBTRG-05MG; format: functional, cell-based, Homo sapiens; conditions: Homo sapiens, DBTRG-05MG;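 also: cell viability assay measuring growth inhibition of human DBTRG-05MG cells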
Description: SANGER: Inhibition of human DBTRG-05MG cell growth in a cell viability assay.

[5] = system: DJM-1; format: functional, cell-based, Homo sapiens; conditions: Homo sapiens, DJM-1;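 also: growth inhibition of human DJM-1 cells, read out by a cell viability assay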
Description: SANGER: Inhibition of human DJM-1 cell growth in a cell viability assay.

[6] = system: Daoy; format: functional, cell-based, Homo sapiens; conditions: Homo sapiens, Daoy;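 also: daoy cell growth inhibition, read out as cell viability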
Description: SANGER: Inhibition of human Daoy cell growth in a cell viability assay.

[7] = system: EGI-1; format: functional, cell-based, Homo sapiens; conditions: Homo sapiens, EGI-1;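 also: cell viability readout used to gauge growth inhibition of EGI-1 cells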
Description: SANGER: Inhibition of human EGI-1 cell growth in a cell viability assay.

[8] = system: ES5; format: functional, cell-based, Homo sapiens; conditions: Homo sapiens, ES5;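 also: growth inhibition of human ES5 cells, read out by a cell viability assay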
Description: SANGER: Inhibition of human ES5 cell growth in a cell viability assay.

[9] = system: ETK-1; format: functional, cell-based, Homo sapiens; conditions: Homo sapiens, ETK-1;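 also: growth inhibition of human ETK-1 cells, read out with a cell viability assay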
Description: SANGER: Inhibition of human ETK-1 cell growth in a cell viability assay.

[10] = system: G-402; format: functional, cell-based, Homo sapiens; conditions: Homo sapiens, G-402
Description: SANGER: Inhibition of human G-402 cell growth in a cell viability assay.

[11] = system: GB-1; format: functional, cell-based, Homo sapiens; conditions: Homo sapiens, GB-1;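 also: growth of GB-1 cells judged by a viability assay, IC50 marks the concentration inhibiting growth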
Description: SANGER: Inhibition of human GB-1 cell growth in a cell viability assay.

[12] = system: GCT; format: functional, cell-based, Homo sapiens; conditions: Homo sapiens, GCT;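 also: GCT cell line proliferation inhibition, read out with a cell viability assay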
Description: SANGER: Inhibition of human GCT cell growth in a cell viability assay.

[13] = system: GR-ST; format: functional, cell-based; conditions: Homo sapiens
Description: SANGER: Inhibition of human GR-ST cell growth in a cell viability assay.

[14] = system: HuO-3N1; format: functional, cell-based, Homo sapiens; conditions: Homo sapiens, HuO-3N1;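 also: cell viability readout used to measure how strongly compounds suppress proliferation of human HuO-3N1 cells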
Description: SANGER: Inhibition of human HuO-3N1 cell growth in a cell viability assay.

[15] = system: JAR; format: functional, cell-based, Homo sapiens; conditions: Homo sapiens, JAR;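 also: growth inhibition of human JAR cells determined with a cell viability assay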
Description: SANGER: Inhibition of human JAR cell growth in a cell viability assay.

[16] = system: KARPAS-45; format: functional, cell-based; conditions: Homo sapiens;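 also: inhibition of cell line growth, read out through a viability assay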
Description: SANGER: Inhibition of human KARPAS-45 cell growth in a cell viability assay.

[17] = system: KG-1; format: functional, cell-based; conditions: Homo sapiens;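 also: growth inhibition of KG-1 cells, read out by a cell viability assay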
Description: SANGER: Inhibition of human KG-1 cell growth in a cell viability assay.

[18] = system: KM-H2; format: functional, cell-based; conditions: Homo sapiens;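 also: growth inhibition of KM-H2 cells, read out by a cell viability assay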
Description: SANGER: Inhibition of human KM-H2 cell growth in a cell viability assay.

[19] = system: KURAMOCHI; format: functional, cell-based; conditions: Homo sapiens;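 also: growth inhibition of KURAMOCHI cells, read out with a cell viability assay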
Description: SANGER: Inhibition of human KURAMOCHI cell growth in a cell viability assay.

[20] = system: KYSE-410; format: functional, cell-based, Homo sapiens; conditions: Homo sapiens, KYSE-410;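 also: growth inhibition of KYSE-410 cells, measured through a cell viability readout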
Description: SANGER: Inhibition of human KYSE-410 cell growth in a cell viability assay.

[21] = system: LB831-BLC; format: functional, cell-based, Homo sapiens; conditions: Homo sapiens, LB831-BLC;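 also: growth inhibition of LB831-BLC cells, read out with a cell viability assay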
Description: SANGER: Inhibition of human LB831-BLC cell growth in a cell viability assay.

[22] = system: LC-2-ad; format: functional, cell-based, Homo sapiens; conditions: Homo sapiens, LC-2-ad;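 also: growth inhibition of human LC-2-ad cells, read out with a cell viability assay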
Description: SANGER: Inhibition of human LC-2-ad cell growth in a cell viability assay.

[23] = system: LN-405; format: functional, cell-based, Homo sapiens; conditions: Homo sapiens, LN-405
Description: SANGER: Inhibition of human LN-405 cell growth in a cell viability assay.

[24] = system: LoVo; format: functional, cell-based; conditions: Homo sapiens;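 also: growth inhibition of human LoVo cells, read out with a cell viability assay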
Description: SANGER: Inhibition of human LoVo cell growth in a cell viability assay.

[25] = system: MC116; format: functional, cell-based; conditions: Homo sapiens;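 also: growth inhibition of MC116 cells, read out with a cell viability assay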
Description: SANGER: Inhibition of human MC116 cell growth in a cell viability assay.

[26] = system: MOLT-16; format: functional, cell-based; conditions: Homo sapiens;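 also: growth inhibition of human MOLT-16 cells, read out with a cell viability assay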
Description: SANGER: Inhibition of human MOLT-16 cell growth in a cell viability assay.

[27] = system: MSTO-211H; format: functional, cell-based, Homo sapiens; conditions: Homo sapiens, MSTO-211H
Description: SANGER: Inhibition of human MSTO-211H cell growth in a cell viability assay.

[28] = system: MV4-11; format: functional, cell-based, MV-4-11; conditions: Homo sapiens;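 also: cell viability readout measuring growth inhibition of human MV-4-11 cells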
Description: SANGER: Inhibition of human MV-4-11 cell growth in a cell viability assay.

[29] = system: NB5; format: functional, cell-based, Homo sapiens; conditions: Homo sapiens, NB5;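 also: growth inhibition of NB5 cells, read out as cell viability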
Description: SANGER: Inhibition of human NB5 cell growth in a cell viability assay.

[30] = system: NB7; format: functional, cell-based; conditions: Homo sapiens;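 also: growth inhibition of NB7 cells, read out with a cell viability assay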
Description: SANGER: Inhibition of human NB7 cell growth in a cell viability assay.

[31] = system: NCI-H1092; format: functional, cell-based; conditions: Homo sapiens;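 also: cell growth inhibition measured with a cell viability assay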
Description: SANGER: Inhibition of human NCI-H1092 cell growth in a cell viability assay.

[32] = system: NCI-H1650; format: functional, cell-based, Homo sapiens; conditions: Homo sapiens, NCI-H1650;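 also: growth inhibition of human NCI-H1650 cells measured by a cell viability assay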
Description: SANGER: Inhibition of human NCI-H1650 cell growth in a cell viability assay.

[33] = system: NCI-H2342; format: functional, cell-based; conditions: Homo sapiens;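 also: growth inhibition of the cancer cell line, determined with a cell viability assay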
Description: SANGER: Inhibition of human NCI-H2342 cell growth in a cell viability assay.

[34] = system: NCI-H526; format: functional, cell-based; conditions: Homo sapiens;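 also: growth inhibition of the human NCI-H526 cell line, measured by a cell viability assay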
Description: SANGER: Inhibition of human NCI-H526 cell growth in a cell viability assay.

[35] = system: NOMO-1; format: functional, cell-based; conditions: Homo sapiens;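 also: growth inhibition of human NOMO-1 cells measured by a cell viability assay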
Description: SANGER: Inhibition of human NOMO-1 cell growth in a cell viability assay.

[36] = system: OAW-28; format: functional, cell-based, Homo sapiens; conditions: Homo sapiens, OAW-28;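 also: growth inhibition of OAW-28 cells, read out with a cell viability assay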
Description: SANGER: Inhibition of human OAW-28 cell growth in a cell viability assay.

[37] = system: RMG-I; format: functional, cell-based, Homo sapiens; conditions: Homo sapiens, RMG-I;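 also: growth inhibition of human RMG-I cells, read out with a cell viability assay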
Description: SANGER: Inhibition of human RMG-I cell growth in a cell viability assay.

[38] = system: RVH-421; format: functional, cell-based, Homo sapiens; conditions: Homo sapiens, RVH-421
Description: SANGER: Inhibition of human RVH-421 cell growth in a cell viability assay.

[39] = system: SCC-15; format: functional, cell-based, Homo sapiens; conditions: Homo sapiens, SCC-15;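 also: growth inhibition of SCC-15 cells, read out with a cell viability assay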
Description: SANGER: Inhibition of human SCC-15 cell growth in a cell viability assay.

[40] = system: SF-126; format: functional, cell-based, Homo sapiens; conditions: Homo sapiens, SF-126;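 also: growth inhibition of human SF126 cells, read out with a cell viability assay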
Description: SANGER: Inhibition of human SF126 cell growth in a cell viability assay.

[41] = system: SK-MEL-24; format: functional, cell-based; conditions: Homo sapiens;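 also: growth inhibition read out by a cell viability assay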
Description: SANGER: Inhibition of human SK-MEL-24 cell growth in a cell viability assay.

[42] = system: SW-620; format: functional, cell-based, Homo sapiens; conditions: Homo sapiens, SW-620;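 also: growth inhibition of human SW-620 cells, measured by a cell viability assay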
Description: SANGER: Inhibition of human SW620 cell growth in a cell viability assay.

[43] = system: SW684; format: functional, cell-based, Homo sapiens; conditions: Homo sapiens, SW684;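 also: growth inhibition of human SW684 cells, measured by a cell viability assay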
Description: SANGER: Inhibition of human SW684 cell growth in a cell viability assay.

[44] = system: SW 962; format: functional, cell-based, Homo sapiens; conditions: Homo sapiens, SW 962;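 also: growth inhibition of human SW962 cells, read out by a cell viability assay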
Description: SANGER: Inhibition of human SW962 cell growth in a cell viability assay.

[45] = system: SiHa; format: functional, cell-based, Homo sapiens; conditions: Homo sapiens, SiHa;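 also: Viability-based readout of growth inhibition in SiHa cells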
Description: SANGER: Inhibition of human SiHa cell growth in a cell viability assay.

[46] = system: 8305C; format: functional, cell-based, Homo sapiens; conditions: Homo sapiens, 8305C
Description: SANGER: Inhibition of human 8305C cell growth in a cell viability assay.

[47] = system: BB49-HNC; format: functional, cell-based, Homo sapiens; conditions: Homo sapiens, BB49-HNC;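 also: cell viability assay read-out, reported as inhibition of BB49-HNC cell growth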
Description: SANGER: Inhibition of human BB49-HNC cell growth in a cell viability assay.

[48] = system: BT-20; format: functional, cell-based, Homo sapiens; conditions: Homo sapiens, BT-20;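 also: cell viability assay measuring suppression of growth in human BT-20 cells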
Description: SANGER: Inhibition of human BT-20 cell growth in a cell viability assay.

[49] = system: TE-6; format: functional, cell-based, Homo sapiens; conditions: Homo sapiens, TE-6;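 also: growth inhibition of TE-6 cells, read out with a cell viability assay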
Description: SANGER: Inhibition of human TE-6 cell growth in a cell viability assay.

[50] = system: TGBC24TKB; format: functional, cell-based, Homo sapiens; conditions: Homo sapiens, TGBC24TKB;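 also: growth inhibition of human TGBC24TKB cells, read out with a cell viability assay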
Description: SANGER: Inhibition of human TGBC24TKB cell growth in a cell viability assay.

[51] = system: UACC-893; format: functional, cell-based, Homo sapiens; conditions: Homo sapiens, UACC-893
Description: SANGER: Inhibition of human UACC-893 cell growth in a cell viability assay.

[52] = system: COLO-320-HSR; format: functional, cell-based; conditions: Homo sapiens;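 also: growth inhibition of COLO-320-HSR cells, determined with a cell viability assay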
Description: SANGER: Inhibition of human COLO-320-HSR cell growth in a cell viability assay.

Structure (SMILES): COc1ccc(C2=N[C@@H](c3ccc(Cl)cc3)[C@@H](c3ccc(Cl)cc3)N2C(=O)N2CCNC(=O)C2)c(OC(C)C)c1 [NUTLIN-3]
- IC50 [1]: > 8 µM
- IC50 [2]: 2.02 µM
- IC50 [3]: 4.75 µM
- IC50 [4]: > 8 µM
- IC50 [5]: > 8 µM
- IC50 [6]: > 8 µM
- IC50 [7]: > 8 µM
- IC50 [8]: > 8 µM
- IC50 [9]: > 8 µM
- IC50 [10]: 3.81 µM
- IC50 [11]: > 8 µM
- IC50 [12]: > 8 µM
- IC50 [13]: > 8 µM
- IC50 [14]: > 8 µM
- IC50 [15]: > 8 µM
- IC50 [16]: > 8 µM
- IC50 [17]: > 8 µM
- IC50 [18]: 7.89 µM
- IC50 [19]: > 8 µM
- IC50 [20]: > 8 µM
- IC50 [21]: > 8 µM
- IC50 [22]: > 8 µM
- IC50 [23]: > 8 µM
- IC50 [24]: 6.02 µM
- IC50 [25]: > 8 µM
- IC50 [26]: 1.79 µM
- IC50 [27]: 2.57 µM
- IC50 [28]: 0.612 µM
- IC50 [29]: 6.56 µM
- IC50 [30]: > 8 µM
- IC50 [31]: > 8 µM
- IC50 [32]: 7.39 µM
- IC50 [33]: > 8 µM
- IC50 [34]: > 8 µM
- IC50 [35]: > 8 µM
- IC50 [36]: > 8 µM
- IC50 [37]: > 8 µM
- IC50 [38]: 6.42 µM
- IC50 [39]: > 8 µM
- IC50 [40]: > 8 µM
- IC50 [41]: > 8 µM
- IC50 [42]: > 8 µM
- IC50 [43]: > 8 µM
- IC50 [44]: > 8 µM
- IC50 [45]: > 8 µM
- IC50 [46]: > 8 µM
- IC50 [47]: > 8 µM
- IC50 [48]: > 8 µM
- IC50 [49]: > 8 µM
- IC50 [50]: > 8 µM
- IC50 [51]: > 8 µM
- IC50 [52]: > 8 µM

Structure (SMILES): O=C(c1cc(Cc2n[nH]c(=O)c3ccccc23)ccc1F)N1CCN(C(=O)C2CC2)CC1 [OLAPARIB]
- IC50 [1]: > 5 µM
- IC50 [2]: > 5 µM
- IC50 [3]: > 5 µM
- IC50 [4]: > 5 µM
- IC50 [5]: > 5 µM
- IC50 [6]: > 5 µM
- IC50 [7]: > 5 µM
- IC50 [8]: 2.88 µM
- IC50 [9]: > 5 µM
- IC50 [10]: > 5 µM
- IC50 [11]: > 5 µM
- IC50 [12]: > 5 µM
- IC50 [13]: > 5 µM
- IC50 [14]: > 5 µM
- IC50 [15]: > 5 µM
- IC50 [16]: > 5 µM
- IC50 [17]: > 5 µM
- IC50 [18]: > 5 µM
- IC50 [19]: > 5 µM
- IC50 [20]: > 5 µM
- IC50 [21]: > 5 µM
- IC50 [22]: > 5 µM
- IC50 [23]: > 5 µM
- IC50 [24]: > 5 µM
- IC50 [25]: > 5 µM
- IC50 [26]: > 5 µM
- IC50 [27]: > 5 µM
- IC50 [28]: 4.13 µM
- IC50 [29]: > 5 µM
- IC50 [30]: > 5 µM
- IC50 [31]: > 5 µM
- IC50 [32]: > 5 µM
- IC50 [33]: > 5 µM
- IC50 [34]: 3.87 µM
- IC50 [35]: > 5 µM
- IC50 [36]: > 5 µM
- IC50 [37]: > 5 µM
- IC50 [38]: > 5 µM
- IC50 [39]: > 5 µM
- IC50 [40]: > 5 µM
- IC50 [41]: > 5 µM
- IC50 [42]: > 5 µM
- IC50 [43]: > 5 µM
- IC50 [44]: > 5 µM
- IC50 [45]: > 5 µM
- IC50 [46]: > 5 µM
- IC50 [47]: > 5 µM
- IC50 [48]: > 5 µM
- IC50 [49]: > 5 µM
- IC50 [50]: > 5 µM
- IC50 [51]: > 5 µM
- IC50 [52]: > 5 µM
